From patent US12116343B2, “Inhibitors of APOL1 and methods of using same” (Vertex Pharmaceuticals Incorporated, priority 2020, dated 2024)

target: T1, APOL1 G1 Protein (Homo sapiens, UniProt O14791, I384M/S342G); test: Trypanosoma brucei brucei lysis assay using APOL1 recombinant protein (AlamarBlue viability); assay type: cell-based; details: Trypanosoma brucei brucei lysis, recombinant APOL1, AlamarBlue; read-out: Trypanosoma Assay (IC50)
T1 sequence (O14791 28-398 S342G/I384M): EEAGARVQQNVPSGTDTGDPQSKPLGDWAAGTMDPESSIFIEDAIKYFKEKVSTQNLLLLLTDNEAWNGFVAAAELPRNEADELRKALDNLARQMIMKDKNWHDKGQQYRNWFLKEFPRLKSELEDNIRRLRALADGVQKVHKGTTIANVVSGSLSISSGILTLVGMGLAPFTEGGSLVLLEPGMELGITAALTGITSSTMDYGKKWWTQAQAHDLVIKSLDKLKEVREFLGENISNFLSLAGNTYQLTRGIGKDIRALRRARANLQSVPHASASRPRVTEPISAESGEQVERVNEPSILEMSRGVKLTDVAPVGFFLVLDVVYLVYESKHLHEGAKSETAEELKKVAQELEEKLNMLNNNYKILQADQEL
Excerpt: Trypanosoma brucei brucei is a blood stream parasite to which human, gorillas and baboon are immune due to the presence of the APOL1 protein in their HDL particles. The protein is uptaken by the parasite via the TbHpHb receptor located in its flagellar pocket and is bonded by the Hpr protein contained in the HDL particles which triggers the receptor endocytosis by the parasite.
Following endocytosis, the formed vesicle containing the HDL particle matures from early to late endosome, and subsequently to lysosome. The concomitant pH change in the lumen of the vesicle triggers the insertion of the APOL1 protein into the membrane of the late endosome/lysosome and hereby triggers lysosomal membrane premeabilisation and as a further downstream event, trypanosome lysis. Trypanosoma brucei brucei is sensitive to lysis by all three APOL1 variants (G0, G1, and G2).
The Trypanosoma brucei brucei lysis assay is a lysis assay of the parasite using recombinant APOL1 protein variant followed by a fluorescent detection method of viability by the addition of AlamarBlue reagent to the assay well, a general metabolic redox indicator (AlamarBlue assay).
Briefly, the AlamarBlue active compound, the resazurin, a blue, water soluble, non-toxic and cell permeable molecule, which can be followed by absorbance, is reduced by various metabolic pathways into resorufin, a red compound which can be followed by either absorbance or fluorescence. The assay allows the calculation of the percent viability (percent of living Trypanosomes remaining in each well) at the end of a lysis relative to the untreated condition by interpolation of fluorescent values (FLU) on a standard curve with a known amount of seeded trypanosome/well.
Trypanosoma brucei brucei (ATCC, Cat. No. PRA-382) • Lister 427 VSG 221 bloodstream form.
Thaw/Expansion Media (ATCC Medium 2834 Modified HMI-9 Medium)
Assay Media (No Phenol Red/No FBS): Make on Day of Use
Hypoxanthine Stock (100×)-9 (10×)
Equipment • El-Clip Tip pipette 12 channel adjustable 2-125 μL, Cat. No. 4672070BT • ThermoFisher MultiDrop 384, Cat. No. 5840300 • Multidrop • Agilent Bravo, Cat. No. G5409A • Bravo • SpectraMax M5
Assay Ready Plates (ARPs) • ARPs comes in two formats: • […] final top concentration with a 2.5 fold dilution down. • […] final top concentration with a 3 fold dilution down. • Both have a 10 point Dose response. • 0.1% DMSO final in the Black Assay Plate. • Compounds are diluted 1000 fold in the Black Assay Plate. • Each plate is designed for 14 compounds in duplicate. • In the final Black Assay Plate:
Trypanosoma brucei brucei Culture
Step 2, Day 4 • Centrifuge at 800×g for 5 minutes at room temperature. • Resuspend in 1 mL media. • Make a 1:25 fold dilution (10 μL/240 μL media). • Count on a hemocytometer (after adding parasites). • Let sit for 1-2 minutes for the parasites to settle. • Count should be approximately 100 viable motile parasites/16 grid or approximately 25×10^6 parasites/flask. • Passage the parasites by adding 1×10^6 parasites/T75 flask in 20 mL media. • Passage the parasites by adding 2.33×10^6 parasites/T175 flask in 46.6 mL media. • For every T75 flask should make enough for approximately 1.5×384 well assay plates. • For every T175 flask should make enough for approximately 3.8×384 well assay plates.
Step 3, Day 6 • Centrifuge at 800×g for 5 minutes. • Resuspend in 3 mL assay media (No phenol red, no FBS) per 75 starting flask. • Resuspend in 7 mL assay media (No phenol red, no FBS) per 175 flask • Make a 1:25 fold dilution. • Count by hemocytometer. • Every T75 flask set up should have approximately 75×10^6 parasites/flask (verify doubling time=8.7 hrs±1 hr). • Every T175 flask set up should have approximately 175×10^6 parasites/flask (verify doubling time=8.7 hrs±1 hr). • Require 46×10^6 parasites per 384 well plate (at 120,000 parasites per well). Protocol B […]

Structure (SMILES)	IC50
CNC(=O)C(C)NC(=O)[C@H]1C[C@H](c2c(-c3ccc(F)cc3)[nH]c3c(F)cc(F)cc32)C1 (mixture of isomers) [Compound 9]	250 to 1000 nM
CCN(C(=O)[C@H]1C[C@H](c2c(-c3ccc(F)cc3)[nH]c3c(F)cc(F)cc32)C1)C(C)CO (mixture of isomers) [Compound 111]	250 to 1000 nM
CC(CO)N1CCN(C(=O)[C@H]2C[C@H](c3c(-c4ccc(F)cc4)[nH]c4c(F)cc(F)cc43)C2)CC1 (mixture of isomers) [Compound 122]	> 1000 nM
CC(O)CN(CCO)C(=O)[C@H]1C[C@H](c2c(-c3ccc(F)cc3)[nH]c3c(F)cc(F)cc32)C1 (mixture of isomers) [Compound 129]	< 250 nM
O=C(NC1CC(O)C1)[C@H]1C[C@H](c2c(-c3ccc(F)cc3)[nH]c3c(F)cc(F)cc32)C1 (some centres unmarked) [Compound 5]	250 to 1000 nM
O=C(NC1(CO)CCC1)[C@H]1C[C@H](c2c(-c3ccc(F)cc3)[nH]c3c(F)cc(F)cc32)C1 [Compound 6]	< 250 nM
CN1CCC(NC(=O)[C@H]2C[C@H](c3c(-c4ccc(F)cc4)[nH]c4c(F)cc(F)cc43)C2)C1=O (some centres unmarked) [Compound 7]	250 to 1000 nM
O=C(NC(CO)CO)[C@H]1C[C@H](c2c(-c3ccc(F)cc3)[nH]c3c(F)cc(F)cc32)C1 [Compound 8]	< 250 nM
O=C(O)CNC(=O)[C@H]1C[C@H](c2c(-c3ccc(F)cc3)[nH]c3c(F)cc(F)cc32)C1 [Compound 10]	> 1000 nM
CC(C)(NC(=O)[C@H]1C[C@H](c2c(-c3ccc(F)cc3)[nH]c3c(F)cc(F)cc32)C1)C(N)=O [Compound 11]	< 250 nM
CO[C@H]1CCN(C(=O)[C@H]2C[C@H](c3c(-c4ccc(F)cc4)[nH]c4c(F)cc(F)cc43)C2)C1 [Compound 95]	> 1000 nM
O=C([C@H]1C[C@H](c2c(-c3ccc(F)cc3)[nH]c3c(F)cc(F)cc32)C1)N1CC(n2cccn2)C1 [Compound 96]	> 1000 nM
O=C([C@H]1C[C@H](c2c(-c3ccc(F)cc3)[nH]c3c(F)cc(F)cc32)C1)N1C2CCC(C2)C1CO (some centres unmarked) [Compound 97]	> 1000 nM
O=C([C@H]1C[C@H](c2c(-c3ccc(F)cc3)[nH]c3c(F)cc(F)cc32)C1)N1C[C@H]2C[C@@]2(CO)C1 [Compound 98]	> 1000 nM
O=C([C@H]1C[C@H](c2c(-c3ccc(F)cc3)[nH]c3c(F)cc(F)cc32)C1)N1C[C@@H]2[C@@H](CO)[C@@H]2C1 [Compound 99]	> 1000 nM
O=C([C@H]1C[C@H](c2c(-c3ccc(F)cc3)[nH]c3c(F)cc(F)cc32)C1)N1CC[C@H](CO)[C@H](O)C1 [Compound 100]	> 1000 nM
O=C([C@H]1C[C@H](c2c(-c3ccc(F)cc3)[nH]c3c(F)cc(F)cc32)C1)N1CCCC1CCO (some centres unmarked) [Compound 101]	250 to 1000 nM
CC1(C)CN(C(=O)[C@H]2C[C@H](c3c(-c4ccc(F)cc4)[nH]c4c(F)cc(F)cc43)C2)CC1O (some centres unmarked) [Compound 102]	> 1000 nM
O=C([C@H]1C[C@H](c2c(-c3ccc(F)cc3)[nH]c3c(F)cc(F)cc32)C1)N1CCC2(COC2)C1 [Compound 103]	> 1000 nM
O=C(NCCCO)[C@H]1C[C@H](c2c(-c3ccc(F)cc3)[nH]c3c(F)cc(F)cc32)C1 [Compound 104]	< 250 nM
O=C([C@H]1C[C@H](c2c(-c3ccc(F)cc3)[nH]c3c(F)cc(F)cc32)C1)N1CCC[C@H](O)C1 [Compound 105]	250 to 1000 nM
O=C([C@H]1C[C@H](c2c(-c3ccc(F)cc3)[nH]c3c(F)cc(F)cc32)C1)N1CC(O)C(N2CCOCC2)C1 (some centres unmarked) [Compound 106]	> 1000 nM

Structure (SMILES)	IC50
O=C([C@H]1C[C@H](c2c(-c3ccc(F)cc3)[nH]c3c(F)cc(F)cc32)C1)N1CCCC[C@@H]1CO [Compound 107]	250 to 1000 nM
O=C([C@H]1C[C@H](c2c(-c3ccc(F)cc3)[nH]c3c(F)cc(F)cc32)C1)N1CCC(CO)(CO)CC1 [Compound 108]	> 1000 nM
O=C([C@H]1C[C@H](c2c(-c3ccc(F)cc3)[nH]c3c(F)cc(F)cc32)C1)N1CCC[C@@H](CO)C1 [Compound 109]	> 1000 nM
CN(C)C[C@@H]1CCN(C(=O)[C@H]2C[C@H](c3c(-c4ccc(F)cc4)[nH]c4c(F)cc(F)cc43)C2)C[C@H]1O [Compound 110]	250 to 1000 nM
CCC1(O)CN(C(=O)[C@H]2C[C@H](c3c(-c4ccc(F)cc4)[nH]c4c(F)cc(F)cc43)C2)C1 [Compound 112]	> 1000 nM
O=C([C@H]1C[C@H](c2c(-c3ccc(F)cc3)[nH]c3c(F)cc(F)cc32)C1)N1CCOCC1CCO (some centres unmarked) [Compound 113]	> 1000 nM
CC1(C)CN(C(=O)[C@H]2C[C@H](c3c(-c4ccc(F)cc4)[nH]c4c(F)cc(F)cc43)C2)CCC1O (some centres unmarked) [Compound 114]	> 1000 nM
O=C([C@H]1C[C@H](c2c(-c3ccc(F)cc3)[nH]c3c(F)cc(F)cc32)C1)N1CCOC(O)C1 (some centres unmarked) [Compound 115]	< 250 nM
C[C@H]1CN(C(=O)[C@H]2C[C@H](c3c(-c4ccc(F)cc4)[nH]c4c(F)cc(F)cc43)C2)CC[C@@H]1O [Compound 116]	> 1000 nM
O=C([C@H]1C[C@H](c2c(-c3ccc(F)cc3)[nH]c3c(F)cc(F)cc32)C1)N(CCO)CCCO [Compound 117]	250 to 1000 nM
O=C([C@H]1C[C@H](c2c(-c3ccc(F)cc3)[nH]c3c(F)cc(F)cc32)C1)N1CCO[C@H](CO)C1 [Compound 118]	> 1000 nM
CCC(O)(CCCO)CNC(=O)[C@H]1C[C@H](c2c(-c3ccc(F)cc3)[nH]c3c(F)cc(F)cc32)C1 (some centres unmarked) [Compound 119]	> 1000 nM
CN(CC1(CO)CCOCC1)C(=O)[C@H]1C[C@H](c2c(-c3ccc(F)cc3)[nH]c3c(F)cc(F)cc32)C1 [Compound 120]	> 1000 nM
O=C([C@H]1C[C@H](c2c(-c3ccc(F)cc3)[nH]c3c(F)cc(F)cc32)C1)N(CCOCCO)C1CCC1 [Compound 121]	> 1000 nM
CC(C)N(CCO)C(=O)[C@H]1C[C@H](c2c(-c3ccc(F)cc3)[nH]c3c(F)cc(F)cc32)C1 [Compound 123]	250 to 1000 nM
CCN(CCO)C(=O)[C@H]1C[C@H](c2c(-c3ccc(F)cc3)[nH]c3c(F)cc(F)cc32)C1 [Compound 124]	250 to 1000 nM
O=C(NCCOCCO)[C@H]1C[C@H](c2c(-c3ccc(F)cc3)[nH]c3c(F)cc(F)cc32)C1 [Compound 125]	< 250 nM
O=C([C@H]1C[C@H](c2c(-c3ccc(F)cc3)[nH]c3c(F)cc(F)cc32)C1)N1CCN(CCO)CC1 [Compound 126]	> 1000 nM
O=C([C@H]1C[C@H](c2c(-c3ccc(F)cc3)[nH]c3c(F)cc(F)cc32)C1)N1CCCC(CCO)C1 (some centres unmarked) [Compound 128]	> 1000 nM
CC1(C)CN(C(=O)[C@H]2C[C@H](c3c(-c4ccc(F)cc4)[nH]c4c(F)cc(F)cc43)C2)CCN1C(=O)[C@H]1C[C@@](C)(O)C1 [Compound 130]	> 1000 nM
CC(O)C1CCCN(C(=O)[C@H]2C[C@H](c3c(-c4ccc(F)cc4)[nH]c4c(F)cc(F)cc43)C2)C1 (some centres unmarked) [Compound 131]	> 1000 nM
O=C([C@H]1C[C@H](c2c(-c3ccc(F)cc3)[nH]c3c(F)cc(F)cc32)C1)N(CCO)c1cnccn1 [Compound 132]	> 1000 nM
